Data as given in paper PMC6651381 (Molecules, 2019).
Read-outs that look alike come from different tables or passages of the source. Marks after values point to notes of the source that are not given here.

Experiments:
Vibrio harveyi BB7XM [1] = test: Vibrio harveyi mutagenicity test, BB7XM; assay type: cell-based; settings: 40 ng/mL; for MI (mutagenic index): positive when MI ≥ 2
Procedure: (§1) In the experiment, overnight cultures of bacterial strains BB7, BB7M, BB7X, and BB7XM were used. Each culture was centrifuged and 10 µL of V. harveyi pellets was placed in 20 mL of BOSS medium. The culture was cultivated at 30 °C until the optical density reached 0.1 at 600 nm (OD600). Then, 10 µL of test compound solution (final concentration of 40 ng/mL) was added to the bacterial culture and incubated. Incubation was continued until OD600 reached 0.3–0.4. Next, 5 × 10^6 bacterial cells were spread onto BOSS agar plates with neomycin. The plates were incubated at 30 °C for 48 h and the number of neomycin-resistant colonies was counted. […] All the experiments were analyzed in three independent repetitions. Finally, MI was calculated.

Vibrio harveyi BB7X [2] = assay type: cell-based; settings: for Inhib. (%) of mutagenicity: against NQNO 40 ng/mL; for Number of revertants, Mean ± SD (antimutagenicity): test compound plus NQNO 40 ng/mL, NQNO line = mutagen alone
Procedure: as §1
(§2) Triplicate plates were set up with each test compound concentration and the entire experiment was repeated twice.
(§3) The inhibition percentage of mutagenicity was calculated as described above in the Ames antimutagenicity assay procedure.

Vibrio harveyi BB7 [3] = assay type: cell-based; settings: for Inhib. (%) of mutagenicity: against NQNO 40 ng/mL; for Number of revertants, Mean ± SD (antimutagenicity): test compound plus NQNO 40 ng/mL, NQNO line = mutagen alone
Procedure: as §1, §2, §3

Vibrio harveyi BB7M [4] = assay type: cell-based; settings: for Inhib. (%) of mutagenicity: against NQNO 40 ng/mL; for Number of revertants, Mean ± SD (antimutagenicity): test compound plus NQNO 40 ng/mL, NQNO line = mutagen alone
Procedure: as §1, §2, §3

Vibrio harveyi BB7XM [5] = assay type: cell-based; settings: for Inhib. (%) of mutagenicity: against NQNO 40 ng/mL; for Number of revertants, Mean ± SD (antimutagenicity): test compound plus NQNO 40 ng/mL, NQNO line = mutagen alone
Procedure: as §1, §2, §3

Vibrio harveyi BB7X [6] = assay type: cell-based; settings: 40 ng/mL; for MI (mutagenic index): positive when MI ≥ 2
Procedure: as §1

Vibrio harveyi BB7 [7] = assay type: cell-based; settings: BB7, 40 ng/mL; for MI (mutagenic index): positive when MI ≥ 2
Procedure: as §1

Vibrio harveyi BB7M [8] = assay type: cell-based; settings: 40 ng/mL; for MI (mutagenic index): positive when MI ≥ 2
Procedure: as §1

[9] = tested on: Salmonella typhimurium TA100; assay type: cell-based; settings: TA100, 40 ng/mL; for MI (mutagenic index): positive when MI ≥ 2
Procedure: The Ames assay was conducted by the preincubation method using S. typhimurium TA100 strain [60]. Each probe was performed in triplicate; 100 µL of the overnight bacterial culture, 50 µL of the investigated compounds at a concentration of 40 ng/mL, and 500 µL of a buffer solution were preincubated for 30 min at 37 °C and then added to 2 mL of the top agar containing histidine/biotin solution. The resulting mixture was poured onto minimal glucose plates. After 48 h incubation, the revertants were counted manually and the results were expressed as mutagenic index (MI) (MI = the number of revertant colonies induced in the tested sample/the number of spontaneous revertants in the negative control). […] DMSO served as the negative (solvent) control.

[10] = tested on: Salmonella typhimurium TA100; assay type: cell-based; settings: for Inhib. (%) of mutagenicity: against NQNO 40 ng/mL; for Number of revertants, Mean ± SD (antimutagenicity): test compound plus NQNO 40 ng/mL, NQNO line = mutagen alone
Excerpt: as §2

mice [11] = settings: cited from earlier work
rats [12] = tested on: rats; parameters: method as in PMID 25446027; settings: p.o., in mg/kg; cited from earlier work
mice [13] = tested on: mice; parameters: method as in PMID 25446027; settings: i.p., dose protecting 50% of animals against seizures, in mg/kg; cited from earlier work
[14] = tested on: human glioblastoma astrocytoma cell line U373; test: MTT viability test on human glioblastoma cells; assay type: cell-based; settings: U373, 10, 25, 50 or 100 µM, 24 h; listed as racemic compound
Procedure: Astrocyte cell line (ATCC, CRL-2541), human glioblastoma astrocytoma cell line U373 (ATCC, HTB17-1055), and human hepatoma HepG2 cells (ATCC, HB-8065) were used in the study. The cells were cultured in standard conditions (37 °C, 5% CO2), in EMEM medium with 2 mM glutamine and 1% non-essential amino acids, all supplemented with 10% FBS and antibiotics (penicillin–streptomycin; 10,000 U/mL; final concentration in culture medium was 1%).
The cells were seeded at a density of 1 × 10^4 in 96-well plates. Following overnight culture, the cells were treated with increasing doses of compounds 1–3 (i.e., 10, 25, 50, or 100 μM) and incubated for 24 h. Next, 10 µL of MTT (3-(4,5-dimethylthiazolyl-2)-2,5-diphenyltetrazolium bromide) reagent (Cayman) was added to each well and after 3 h of incubation (37 °C, 5% CO2) the medium was aspirated, and the formazan produced in the cells appeared as dark crystals at the bottom of the wells. Subsequently, crystal dissolving solution (Cayman) was added to each well and the optical density (OD) was determined at 570 nm on a plate reader (BIOTEK). Doxorubicin (DOX) was used as a positive control. When hepatotoxicity of test compounds was evaluated, the morphology of the cells was also determined using a bright-field inverted microscope (Nikon).

rats [15] = tested on: rats; parameters: unit not given beside the values; settings: cited from earlier work
mice [16] = tested on: mice; parameters: method as in PMID 25446027; settings: i.p., printed in the ED50(MES) column; cited from earlier work
[17] = target: recombinant human P-gp membranes (Homo sapiens, UniProt P08183); test: P-gp ATPase activity assay (P-gp-Glo); settings: compounds 10–100 µM, verapamil 100 µM; 5 mM Mg ATP, 37 °C, 45 min
Chain of recombinant human P-gp membranes (P08183 whole entry): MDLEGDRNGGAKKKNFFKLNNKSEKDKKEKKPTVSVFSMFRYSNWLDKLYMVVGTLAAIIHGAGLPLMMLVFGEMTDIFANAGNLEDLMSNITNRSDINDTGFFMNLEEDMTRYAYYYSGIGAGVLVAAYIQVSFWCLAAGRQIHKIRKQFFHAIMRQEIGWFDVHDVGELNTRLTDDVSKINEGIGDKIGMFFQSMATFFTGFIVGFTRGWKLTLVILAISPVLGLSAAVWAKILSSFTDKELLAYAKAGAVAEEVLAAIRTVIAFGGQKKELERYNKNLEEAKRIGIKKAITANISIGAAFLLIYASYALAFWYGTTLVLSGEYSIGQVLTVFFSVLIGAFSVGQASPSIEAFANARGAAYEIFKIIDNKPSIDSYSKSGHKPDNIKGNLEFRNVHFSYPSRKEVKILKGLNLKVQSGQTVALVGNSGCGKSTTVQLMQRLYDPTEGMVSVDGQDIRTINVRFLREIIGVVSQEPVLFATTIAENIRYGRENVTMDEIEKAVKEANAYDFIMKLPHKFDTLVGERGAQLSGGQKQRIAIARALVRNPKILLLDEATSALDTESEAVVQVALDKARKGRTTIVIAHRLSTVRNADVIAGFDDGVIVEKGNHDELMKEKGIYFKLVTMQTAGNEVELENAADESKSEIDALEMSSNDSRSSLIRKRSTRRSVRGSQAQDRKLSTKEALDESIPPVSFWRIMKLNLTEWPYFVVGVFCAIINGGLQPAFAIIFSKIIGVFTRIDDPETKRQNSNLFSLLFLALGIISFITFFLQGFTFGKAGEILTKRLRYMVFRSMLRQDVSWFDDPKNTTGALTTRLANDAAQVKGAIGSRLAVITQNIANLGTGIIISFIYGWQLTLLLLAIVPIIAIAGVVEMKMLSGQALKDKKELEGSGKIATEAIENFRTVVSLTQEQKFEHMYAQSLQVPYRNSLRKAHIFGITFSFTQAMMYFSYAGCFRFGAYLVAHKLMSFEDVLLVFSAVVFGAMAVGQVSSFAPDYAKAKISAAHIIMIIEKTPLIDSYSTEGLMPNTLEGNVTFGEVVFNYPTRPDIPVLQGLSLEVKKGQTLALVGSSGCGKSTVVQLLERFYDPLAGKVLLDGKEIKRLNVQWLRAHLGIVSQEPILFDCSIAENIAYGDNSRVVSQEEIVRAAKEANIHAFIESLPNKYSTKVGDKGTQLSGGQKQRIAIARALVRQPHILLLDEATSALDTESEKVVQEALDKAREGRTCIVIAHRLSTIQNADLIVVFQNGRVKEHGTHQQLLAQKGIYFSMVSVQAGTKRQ
Procedure: The changes in the ATPase activity of P-gp were determined by using the P-gp-Glo TM assay system (Promega). […] When P-gp ATPase activity is inhibited, ATP accumulates and becomes a substrate for luciferase, with a consequent increase in luminescence. The tested compounds at increasing concentration (10–100 µM) were incubated with 5 mM Mg ATP and 25 µg recombinant human P-gp membranes at 37 °C for 45 min. The luminescence signal was started by adding ATP detection buffer. After incubation at room temperature for 25 min, the samples were read in white 96-well plates on a multi-plate reader (BIOTEK).

[18] = mice, i.p., dose producing toxicity in 50% of animals
[19] = mice, i.p., value printed in the scMet line

Compound	Number of revertants, Mean ± SD (Vibrio harveyi BB7XM [1])	MI (mutagenic index) (Vibrio harveyi BB7XM [1])	Inhib. (%) of mutagenicity (Vibrio harveyi BB7X [2])	Number of revertants, Mean ± SD (antimutagenicity) (Vibrio harveyi BB7X [2])	Inhib. (%) of mutagenicity (Vibrio harveyi BB7 [3])	Number of revertants, Mean ± SD (antimutagenicity) (Vibrio harveyi BB7 [3])	Inhib. (%) of mutagenicity (Vibrio harveyi BB7M [4])	Number of revertants, Mean ± SD (antimutagenicity) (Vibrio harveyi BB7M [4])	Inhib. (%) of mutagenicity (Vibrio harveyi BB7XM [5])	Number of revertants, Mean ± SD (antimutagenicity) (Vibrio harveyi BB7XM [5])	Number of revertants, Mean ± SD (Vibrio harveyi BB7X [6])	MI (mutagenic index) (Vibrio harveyi BB7X [6])	Number of revertants, Mean ± SD (Vibrio harveyi BB7 [7])	MI (mutagenic index) (Vibrio harveyi BB7 [7])	Number of revertants, Mean ± SD (Vibrio harveyi BB7M [8])	MI (mutagenic index) (Vibrio harveyi BB7M [8])	Number of revertants, Mean ± SD [9]	MI (mutagenic index) [9]	ED50(MES) (rats [12])	ED50(MES) (mice [13])	also measured
Cc1cc(OCCN[C@H]2CCCC[C@@H]2O)ccc1Cl [Compound 2]	10 ± 3	0.9	(30) %	21 ± 3	(38) %	23 ± 4	(41) %	20 ± 4	(40) %	14 ± 4	10 ± 6	0.6	23 ± 5	1.2	23 ± 3	1.1	3 ± 1	0.2			Inhib. (%) of mutagenicity [10]: (38) %; Number of revertants, Mean ± SD (antimutagenicity) [10]: 14 ± 3
NC(=O)N1c2ccccc2C=Cc2ccccc21 [CBZ, carbamazepine]																			3.57 ^^	9.85 ^#	TD50 (mice [11]; mouse, in vivo, ip): 47.8 ^#
Cc1cc(OCCNC2CCCCC2O)ccc1Cl (stereo not drawn) [Compound 3]	15 ± 4	1.4	(29) %	21 ± 4	(51) %	19 ± 3	(36) %	22 ± 5	(57) %	10 ± 4	13 ± 4	1.0	23 ± 3	1.4	27 ± 4	1.7	6 ± 3	0.4	99.25 ^^	25.05 ^#	cytotoxicity against human glioblastoma cells (MTT viability) [14]: less cytotoxic than the two enantiomers; TD50 (mice [11]; [18]): 71.04 ^#; TD50 (mice [11]; [19]): 71.04 ^#scMet; TD50 (rats [15]; rats, p.o.): >250 ^^; ED50 (scMet) (mice [16]): >150 ^#scMet; Inhib. (%) of mutagenicity [10]: (41) %; Number of revertants, Mean ± SD (antimutagenicity) [10]: 13 ± 3
CCCC(CCC)C(=O)O [VPA, valproate]																			395 ^^	287 ^#	TD50 (rats [15]; rat, in vivo, po): 859 ^^
Cc1cc(OCCN[C@@H]2CCCC[C@H]2O)ccc1Cl [Compound 1]	18 ± 2	1.6	(31) %	20 ± 4	(32) %	26 ± 3	(37) %	22 ± 2	(35) %	16 ± 2	16 ± 5	0.9	21 ± 3	1.1	22 ± 3	1.0	9 ± 4	0.6		38.34 ^#	TD50 (mice [11]; [18]): 66.03 ^#; TD50 (mice [11]; [19]): 66.03 ^#scMet; effect on P-gp ATPase activity (luminescence) [17]: more potent; ED50 (scMet) (mice [16]): >90.00 ^#scMet; Inhib. (%) of mutagenicity [10]: (27) %; Number of revertants, Mean ± SD (antimutagenicity) [10]: 16 ± 2
O=C1NC(=O)C(c2ccccc2)(c2ccccc2)N1 [PHT, phenytoin]																			32.2 ^^	6.48 ^#	TD50 (rats [15]; rats, p.o.): >500 ^^
